Data from ChEMBL document CHEMBL2331303, “N-(Phenoxyalkyl)amides as MT(1) and MT(2) ligands: antioxidant properties and inhibition of Ca(2+)/CaM-dependent kinase II” (Bioorg Med Chem, 2013).
The source made the active and inactive calls. The calls are words filed in the database; no cut-off is given here.

Experiments:
HepG2 [1] = assay: Cytoprotective activity in human HepG2 cells assessed as reduction in H2O2-induced cell death at 10 to 100 ug/mL incubated for 2 hrs by MTT assay; type: functional, cell-based
[2] = system: Radical scavenging activity; assay: Antioxidant activity assessed as DPPH radical scavenging activity at 1 mM; type: functional
[3] = system: Radical scavenging activity; assay: Antioxidant activity assessed as DPPH radical scavenging activity at 0.1 mM; type: functional
[4] = Inhibition of active recombinant full-length CaMK2 (unknown origin) using Autocamtide substrate and [gamma32P]ATP after 30 mins by scintillation counting method; design: species or system Homo sapiens
HepG2 [5] = assay: Antioxidant activity in human HepG2 cells assessed as reduction in H2O2-induced oxidation by DCFH-DA assay; type: functional, cell-based
[6] = system: Radical scavenging activity; assay: Antioxidant activity assessed as DPPH radical scavenging activity at 5.5 mM; type: functional
[7] = system: Radical scavenging activity; assay: Antioxidant activity assessed as DPPH radical scavenging activity; type: functional; details: dose or concentration not given here
HepG2 [8] = assay: Cytoprotective activity in human HepG2 cells assessed as reduction in H2O2-induced cell death at 100 ug/mL incubated for 2 hrs by MTT assay; type: functional; design: scale not given: the % may be the effect or the level left

Structure (SMILES) | inhibition [2] | inhibition [3] | IC50 [4] | IC50 (HepG2 [5]) | inhibition [6] | also measured
CCCC(=O)NCC(C)Oc1cccc(OC)c1 (racemic) | 4.05% | 3.22% | 122 µM | 226 µM | 11.7% | Activity (HepG2 [1]): Active
O=C(O)c1cc(O)c(O)c(O)c1 |  | 97.1% |  |  |  | inhibition [7]: 6%
CCCC(=O)NC[C@H](C)Oc1cccc(OC)c1 | 1.3% | 2.8% | 77 µM | > 1000 µM | 15.1% | 
CC(=O)NC(C)COc1ccccc1 (racemic) |  |  |  | > 1000 µM |  | 
CC(=O)NCCOc1ccccc1 |  |  |  | > 1000 µM |  | 
CCCC(=O)NC[C@@H](C)Oc1cccc(OC)c1 | 5.1% | 5.6% | 129 µM | 183 µM | 20.7% | Activity (HepG2 [1]): Active; Activity (HepG2 [8]): 100%
COc1ccc2[nH]cc(CCNC(C)=O)c2c1 [MELATONIN] | 7.8% | 2.1% | 128 µM | 271 µM | 31.8% | 
COc1cccc(OC(C)CNC(C)=O)c1 (racemic) |  |  |  | > 1000 µM |  | 
CC(=O)NCC(C)Oc1ccccc1 (racemic) |  |  |  | > 1000 µM |  | 
COc1cccc(O[C@H](C)CNC(=O)C2CC2)c1 |  |  | 129 µM |  |  | 
COc1cccc(OC(C)CNC(=O)C2CC2)c1 (racemic) |  |  | 107 µM | > 1000 µM |  | 
COc1cccc(O[C@@H](C)CNC(=O)C2CC2)c1 |  |  | 117 µM |  |  | 
